From patent publication US20080125452A1, “Indolopyridines,Benzofuranopyridines and Benzothienopyridines” (ALTANA PHARMA AG, priority 2005, published 2008) come the findings set out here.

Broadly, the IC50 is the midpoint of a concentration-inhibition curve. As a reminder, the melting point is the temperature, or range, at which the solid turns liquid.

The test system of series [1] is RKO colon adenocarcinoma cells (RKOp27 induced). The series is described as follows: Alamar Blue cell viability assay on RKOp27 cells arrested by Ponasterone A induced p27Kip1 expression (cell cycle specific mode of action). The format is cell-based. The conditions noted are these: Homo sapiens, cells arrested by ectopic p27Kip1 induced with 10 μM Ponasterone A, 72 hours incubation, read-out: IC50 RKO p27 induced. Here is the method: To determine the cell cycle specific mode of action, subclones of RKO colon adenocarcinoma cells (RKOp27 as described by Schmidt et al. in Oncogene 19, 2423-2429; 2000) are seeded into 96 well flat bottom plates at a density of 16000 cells per well in a volume of 50 μl per well in DMEM growth medium with 10% FCS containing 10 μM Ponasterone A. 24 hours after seeding the 50 μl each of the compound dilutions in DMEM medium are added into each well of the 96-well plate. Each compound dilution is tested as quadruplicates. Wells containing untreated control cells are filled with 50 μl DMEM medium containing 1% DMSO. The cells are then incubated with the substances for 72 hours at 37° C. in a humidified atmosphere containing 5% carbon dioxide. To determine the viability of the cells, 10 μl of an Alamar Blue solution (Biosource) are added and the fluorescence is measured at an extinction of 544 nm and an emission of 590 nm. For the calculation of the cell viability the emission value from untreated cells is set as 100% viability and the emission rates of treated cells are set in relation to the values of untreated cells. Viabilities are expressed as % values. Viability is compared of proliferating cells grown in the absence of the inducer Ponasterone A, versus viability of cells arrested by the expression of ectopic p27Kip1 induced by Ponasterone A.
Representative IC50 values for anti-proliferation/cytotoxicity determined in the aforementioned assays follow from the following table A, in which the numbers of the compound correspond to the numbers of the examples.
Background: Resazurin is reduced to fluorescent resorufin, in cell work by metabolically active cells.

Molecule `CN1C(=O)[C@@H]2Cc3c([nH]c4ccccc34)[C@@H](c3cc(Cl)cc(Cl)c3)N2C1=S` [Compound 3, (3aS,10R)-10-(3,5-Dichloro-phenyl)-2-methyl-1-thioxo-1,2,3a,4,9,10-hexahydro-2,9,10a-triaza-cyclopenta[b]fluoren-3-one] gave a melting point of 277 °C. Besides, the IC50 in series [1] is > 100 µM.
For `COc1cc(OC)cc([C@@H]2c3[nH]c4cccc(C)c4c3C[C@H]3C(=O)N(C)C(=S)N23)c1` (racemic) [Compound 7, (3aSR,10RS)-10-(3,5-Dimethoxy-phenyl)-2,5-dimethyl-1-thioxo-1,2,3a,4,9,10-hexahydro-2,9,10a-triaza-cyclopenta[b]fluoren-3-one] the same measures were 279 to 291 °C and > 100 µM.
As for `COc1cc(OC)cc([C@@H]2c3[nH]c4ccccc4c3C[C@H]3C(=O)N(C)C(=S)N23)c1` [Compound 1, (3aS,10R)-10-(3,5-Dimethoxy-phenyl)-2-methyl-1-thioxo-1,2,3a,4,9,10-hexahydro-2,9,10a-triaza-cyclopenta[b]fluoren-3-one], the half-maximal inhibitory concentration (IC50) in series [1] is > 100 µM.
In turn, `COc1cc(OC)cc([C@@H]2c3[nH]c4cc(C)ccc4c3C[C@H]3C(=O)N(C)C(=S)N23)c1` (racemic) [Compound 8, (3aSR,10RS)-10-(3,5-Dimethoxy-phenyl)-2,7-dimethyl-1-thioxo-1,2,3a,4,9,10-hexahydro-2,9,10a-triaza-cyclopenta[b]fluoren-3-one] displayed a melting point of 216 to 218 °C. Moreover, the 50% inhibitory concentration (IC50) in series [1] was > 100 µM.
The matching figures for `Cc1cc(C)cc([C@@H]2c3[nH]c4ccccc4c3C[C@H]3C(=O)N(C)C(=S)N23)c1` [Compound 5, (3aS,10R)-10-(3,5-Dimethyl-phenyl)-2-methyl-1-thioxo-1,2,3a,4,9,10-hexahydro-2,9,10a-triaza-cyclopenta[b]fluoren-3-one]: 252 to 257 °C and > 100 µM.
For `COc1cc(OC)cc([C@@H]2c3sc4ccccc4c3C[C@H]3C(=O)N(C)C(=S)N23)c1` (racemic) [Compound 2, (3aSR,10RS)-10-(3,5-Dimethoxy-phenyl)-2-methyl-1-thioxo-1,2,4,10-tetrahydro-3aH-9-thia-2,10a-diaza-cyclopenta[b]fluoren-3-one] the same measures were 247 to 249 °C and > 85 µM.
`COc1cc(OC)cc([C@@H]2c3[nH]c4cc(F)ccc4c3C[C@H]3C(=O)N(C)C(=S)N23)c1` (racemic) [Compound 6, (3aSR,10RS)-10-(3,5-Dimethoxy-phenyl)-7-fluoro-2-methyl-1-thioxo-1,2,3a,4,9,10-hexahydro-2,9,10a-triaza-cyclopenta[b]fluoren-3-one]: the melting point was 199 to 202 °C. For the same molecule, the IC50 in series [1] is > 100 µM.
The matching figures for `CN1C(=O)[C@@H]2Cc3c([nH]c4ccccc34)[C@@H](c3cc(F)cc(F)c3)N2C1=S` [Compound 4, (3aS,10R)-10-(3,5-Difluoro-phenyl)-2-methyl-1-thioxo-1,2,3a,4,9,10-hexahydro-2,9,10a-triaza-cyclopenta[b]fluoren-3-one]: 308 to 310 °C and > 100 µM.
